Patent US9328134B2, “Carbohydrate phosphonate derivatives as modulators of glycosylation” (AMGEN INC., priority 2013, dated 2016)

Assays:
[1] = Cell viability by propidium iodide, run with the high mannose assay; assay type: cell-based, Chinese hamster; settings: Chinese hamster, 100 μM, CS-9 CHO cells, read-out: Cell Viability max activity at 100 μM
Procedure: (§1) The effect of the example compounds on cell surface protein high mannose was measured in CS-9 CHO cells. A range of amounts of example compound was added to produce various concentrations (100 μM-0.005 uM). These were added to cells grown in batch production CHO cell media in Costar 96-well clear round bottom polypropylene plates and incubated at 37° C. in the presence of 5% CO2. Commercially available standard batch production serum free CHO media such as CD OptiCHO (Invitrogen), Power CHO (Lonza), or ExCell 325 PF CHO (commercially available from Sigma Aldrich) may be used in accordance with the assay. After 3 days, cells were analyzed by fluorescence-activated cell sorting (FACS) using FITC-labeled Concanavilin A according to the following procedure. After 3 days, 50 uL of FITC-LCA (3 ug/mL) was added to columns 1-11 and plates were incubated for 30 minutes. Plates were then centrifuged briefly (2,000 rpm), and the medium was aspirated away. Cells were washed three times with PBS with 1% BSA, resuspended in the same buffer, and analyzed on the BD LSRii instrument. Cells were simultaneously assayed for viability using propidium iodide.

[2] = test system: CS-9 CHO cells; test: as above; assay type: cell-based, Chinese hamster; settings: Cricetulus griseus, 72 h, 3 days
Procedure: as §1

[3] = test system: cell surface protein high mannose in CS-9 CHO cells; test: Assay for Cell Surface Protein High Mannose (FACS with FITC-labeled Concanavilin A); assay type: cell-based, Chinese hamster; settings: Cricetulus griseus, 72 h, 3 days
Procedure: Assay for Cell Surface Protein High Mannose
as §1

[4] = Cell viability by propidium iodide, run with the fucosylation assay; assay type: cell-based, Chinese hamster; settings: Chinese hamster, 100 μM, CS-9 CHO cells, read-out: Cell Viability max activity at 100 μM
Procedure: as §1, with “fucosylation” for “high mannose”, “FITC-Lens culinaris agglutinin (FITC-LCA, Vector Laboratories Cat#FL-1041)” for “FITC-labeled Concanavilin A”

[5] = test system: CS-9 CHO cells; test: as above; assay type: cell-based, Chinese hamster; settings: Cricetulus griseus, 72 h, 3 days
Procedure: as §1, with “fucosylation” for “high mannose”, “FITC-Lens culinaris agglutinin (FITC-LCA, Vector Laboratories Cat#FL-1041)” for “FITC-labeled Concanavilin A”

[6] = Stability of inhibitor in the culture medium; assay type: physicochemical; settings: cell culture medium
[7] = test system: CHO cells expressing anti-TRAIL IgG1 antibody; test: Production cultures to generate antibodies for glycan analysis (HILIC); assay type: cell-based, Chinese hamster
Procedure: Production Cultures to Generate Antibodies for Glycan Analysis
CHO cells expressing anti-TRAIL IgG1 antibody were seeded into serum-free growth medium in deep 24-well plates via 1:5 dilution. Any medium suitable for growth of CHO cells (i.e. PowerCHO by Lonza or OptiCHO by Invitrogen) can be used. The fucosylation inhibitor Example 1 compound was added to the cultures at inoculation at 5, 10, 20, 40, 80, 160 and 320 uM via 1:1000 dilution of stock solutions in DMSO. The cultures were placed into a shaking incubator (50 mm orbital diameter, 36° C., 5% CO2, 220 rpm). The growth and viability of the cultures were monitored throughout the length of the production assay. The cells were fed with feed medium and an amino acid supplement on days 3, 6 and 8. Cultures were harvested on day 10 via centrifugation and spent medium supernatants were submitted for titer analysis and protein A purification. Glycan analysis of purified antibodies was conducted via the HILIC assay.
To test whether daily doses of the Example 1 fucosylation inhibitor would result in higher inhibition profile, CHO cells expressing anti TRAIL IgG1 antibody were seeded into serum-free growth medium in deep 24-well plates via 1:5 dilution. The fucosylation inhibitor compound Example 1 (FIG. 2) and compound Example 3 (FIG. 3) were added to the cultures on a daily basis at 5, 10, 20, 40, 60, 80, and 100 uM levels via 1:1000 dilution of stock solutions in DMSO. The cultures were placed into a shaking incubator (50 mm orbital diameter, 36° C., 5% CO2, 220 rpm). The growth and viability of cultures were monitored throughout the length of the production assay. Starting on day 3, cells were centrifuged at 1000 rpm for 5 minutes, a fraction of the spent medium was removed and cells were replenished with the equivalent volume of production medium. Cultures were harvested on day 10 via a 10 minute centrifugation at 1000 rpm. Spent medium fractions collected during the course of the experiment were submitted for titer analysis. Spent medium fractions corresponding to select time-points were also purified on protein A. Glycan analysis of the purified antibodies is shown in FIGS. 2 and 3.
The PNGase F (New England Biolabs) enzymatically-released N-linked glycans from protein-purified anti-TRAIL IgG1 antibody were labeled with 2-aminobenzoic acid (2-AA) and separated by HILIC (hydrophilic interaction liquid chromatography) in-line with a fluorescence detector. The separation was performed using a Waters Acquity UPLC (Waters, Milford, Mass.). In-line MS, using an ion trap mass spectrometer (LTQ; Thermo Scientific, Waltham, Mass.) in positive mode, was incorporated to accommodate mass determination of species. Glycans were injected and bound to the column in high organic conditions and were then eluted with an increasing gradient of an aqueous ammonium formate buffer. Fast separation times were achieved using a […] small particle column format (Acquity UPLC BEH Glycan Column, 2.1×100 mm; Waters, Milford, Mass.). Total runtime including column re-equilibration for the MS compatible separation was 30 minutes. Glycan from cells treated with 320 uM Example 1 compound was 64% fucosylated vs. 77% for DMSO control, and contained 13% high mannose vs. 12% for DMSO control.

[8] = test system: cell surface protein fucosylation in CS-9 CHO cells; test: Cell Surface Protein Fucosylation Assay (FACS with FITC-LCA); assay type: cell-based, Chinese hamster; settings: Cricetulus griseus, 72 h, 3 days
Procedure: Cell Surface Protein Fucosylation Assay
as §1, with “fucosylation” for “high mannose”, “FITC-Lens culinaris agglutinin (FITC-LCA, Vector Laboratories Cat#FL-1041)” for “FITC-labeled Concanavilin A”
The following table includes IC50 values obtained using the procedures set forth above for the Example compounds described herein.

Stability of inhibitor in the medium [6] | Compound | viability at 3 days, 100 µM [1] [%] | IC50 [2] [µM] | IC50 [3] [µM] | viability at 3 days, 100 µM [4] [%] | IC50 [5] [µM] | Incorporation of inhibitor molecule into the glycan ([7]; 320 uM, HILIC with in-line MS) | Glycan high mannose content ([7]; 320 uM, anti-TRAIL IgG1 glycan, HILIC, DMSO control 12%) [%] | Glycan fucosylated ([7]; 320 uM, anti-TRAIL IgG1 glycan, HILIC, DMSO control 77%) [%] | inhibition at 320 µM ([7]; Cricetulus griseus, CHO, 240 h, 320 uM added at inoculation, anti-TRAIL IgG1, harvest day 10, read-out: Maximum inhibition of fucosylation (afucosylation)) [%] | IC50 [8] [µM] | Incorporation of inhibitor into antibody glycan ([7]; added to cell culture media on a daily basis, 5-100 uM)
– | CC(=O)OC[C@H]1O[C@H](CP(=O)(OCOC(=O)C(C)(C)C)OCOC(=O)C(C)(C)C)[C@@H](OC(C)=O)[C@@H](OC(C)=O)[C@@H]1OC(C)=O [Example 4, (2R,3R,4S,5S,6S)-2-(acetoxymethyl)-6-((bis((pivaloyloxy)methoxy)phosphoryl)methyl)tetrahydro-2H-pyran-3,4,5-triyl triacetate] | 92 | > 100 | 33.1 | – | – | – | – | – | – | – | –
limited stability | CC(=O)O[C@@H]1[C@H](OC(C)=O)[C@H](C)O[C@H](CP(=O)(OCOC(=O)C(C)(C)C)OCOC(=O)C(C)(C)C)[C@H]1OC(C)=O [Example 1, (2S,3S,4R,5R,6S)-2-((bis((pivaloyloxy)methoxy)phosphoryl)methyl)-6-methyltetrahydro-2H-pyran-3,4,5-triyl triacetate] | – | – | – | 94 | > 100 | No trace of the inhibitor molecule was detectable in the glycan | 13 | 64 | ~10 | 21 | –
– | CC(=O)OCOP(=O)(C[C@H]1O[C@@H](C)[C@@H](OC(C)=O)[C@@H](OC(C)=O)[C@@H]1OC(C)=O)OCOC(C)=O [Example 2, (2S,3S,4R,5R,6S)-2-((bis(acetoxymethoxy)phosphoryl)methyl)-6-methyltetrahydro-2H-pyran-3,4,5-triyl triacetate] | – | – | – | 103 | > 100 | – | – | – | – | 44 | –
– | CC(=O)O[C@H]1[C@H](OC(C)=O)[C@H](CP(=O)(OCOC(=O)C(C)(C)C)OCOC(=O)C(C)(C)C)O[C@@H](C(F)(F)F)[C@H]1OC(C)=O [Example 3, (2R,3S,4R,5S,6R)-2-((bis((pivaloyloxy)-methoxy)phosphoryl)methyl)-6-(trifluoromethyl)tetrahydro-2H-pyran-3,4,5-triyl triacetate] | – | – | – | 90 | > 100 | – | – | – | – | 7 | some incorporation of part of the inhibitor
– | CC(=O)N[C@@H]1[C@@H](OC(C)=O)[C@H](OC(C)=O)[C@@H](COC(C)=O)O[C@@H]1CP(=O)(OCOC(=O)C(C)(C)C)OCOC(=O)C(C)(C)C [Example 5, (((((2S,3R,4R,5S,6R)-3-acetamido-4,5-diacetoxy-6-(acetoxymethyl)tetrahydro-2H-pyran-2-yl)methyl)phosphoryl)bis(oxy))bis(methylene)bis(2,2-dimethylpropanoate)] | 88 | > 100 | 3.4 | – | – | – | – | – | – | – | –
